Test system: RNAi-treated eri-1 (mg366) nematodes
Assay: RNAi screening of olfactory receptor genes: chemotaxis assay of RNAi-treated nematodes to odorants
Assay type: in vivo, Caenorhabditis elegans
Details: repellent or high concentration of attractant
In short: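 eri-1 (mg366) worms knocked down by feeding RNAi (Ahringer library) on IPTG/ampicillin NGM plates with E. coli for 4 days, then tested for chemotaxis, 30–50 worms per assay. Odorants at 1 μl of 10^−3 or 10^−4 dilution, or 1 and 5 μl undiluted. Hits scored by z score, thresholds ±1.96 (P<0.05) or ±0.96.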

## CCCCCCCCO [octanol]
Control nematodes
  chemotaxis index: −0.68 ± 0.018
srh-4 RNAi-treated nematodes
  chemotaxis index: −0.17
srh-7 RNAi-treated nematodes
  chemotaxis index: −0.65
srh-8 RNAi-treated nematodes
  chemotaxis index: −0.80
srh-10 RNAi-treated nematodes
  chemotaxis index: −0.45
srh-11 RNAi-treated nematodes
  chemotaxis index: −0.19
srh-15 RNAi-treated nematodes
  chemotaxis index: −0.85
srh-16 RNAi-treated nematodes
  chemotaxis index: −0.89
srh-18 RNAi-treated nematodes
  chemotaxis index: −0.65
srh-19 RNAi-treated nematodes
  chemotaxis index: −0.33
srh-22 RNAi-treated nematodes
  chemotaxis index: −0.48
srh-23 RNAi-treated nematodes
  chemotaxis index: −0.90
srh-24 RNAi-treated nematodes
  chemotaxis index: −0.56
srh-25 RNAi-treated nematodes
  chemotaxis index: −0.90
srh-27 RNAi-treated nematodes
  chemotaxis index: −0.68
srh-28 RNAi-treated nematodes
  chemotaxis index: −0.73
srh-36 RNAi-treated nematodes
  chemotaxis index: −0.72
srh-37 RNAi-treated nematodes
  chemotaxis index: −0.88
srh-39 RNAi-treated nematodes
  chemotaxis index: −0.50
srh-40 RNAi-treated nematodes
  chemotaxis index: −0.92
srh-41 RNAi-treated nematodes
  chemotaxis index: −0.80
srh-44 RNAi-treated nematodes
  chemotaxis index: −0.52
srh-45 RNAi-treated nematodes
  chemotaxis index: −0.87
srh-46 RNAi-treated nematodes
  chemotaxis index: −0.87
srh-48 RNAi-treated nematodes
  chemotaxis index: −0.83
srh-49 RNAi-treated nematodes
  chemotaxis index: −0.57
srh-50 RNAi-treated nematodes
  chemotaxis index: −0.89
srh-51 RNAi-treated nematodes
  chemotaxis index: −0.89
srh-52 RNAi-treated nematodes
  chemotaxis index: −0.79
srh-55 RNAi-treated nematodes
  chemotaxis index: −0.95
srh-59 RNAi-treated nematodes
  chemotaxis index: −0.55
srh-60 RNAi-treated nematodes
  chemotaxis index: −0.52
srh-61 RNAi-treated nematodes
  chemotaxis index: −0.77
srh-67 RNAi-treated nematodes
  chemotaxis index: −0.66
srh-68 RNAi-treated nematodes
  chemotaxis index: −0.79
srh-69 RNAi-treated nematodes
  chemotaxis index: −0.61
srh-70 RNAi-treated nematodes
  chemotaxis index: −0.80
srh-71 RNAi-treated nematodes
  chemotaxis index: −0.60
srh-72 RNAi-treated nematodes
  chemotaxis index: −0.62
srh-74 RNAi-treated nematodes
  chemotaxis index: −0.89
srh-75 RNAi-treated nematodes
  chemotaxis index: −0.59
srh-77 RNAi-treated nematodes
  chemotaxis index: −0.31
srh-79 RNAi-treated nematodes
  chemotaxis index: −0.17
srh-80 RNAi-treated nematodes
  chemotaxis index: −0.39
srh-82 RNAi-treated nematodes
  chemotaxis index: −0.65
srh-83 RNAi-treated nematodes
  chemotaxis index: −0.33
srh-97 RNAi-treated nematodes
  chemotaxis index: −0.64
srh-99 RNAi-treated nematodes
  chemotaxis index: −0.61
srh-100 RNAi-treated nematodes
  chemotaxis index: −0.46
srh-104 RNAi-treated nematodes
  chemotaxis index: −0.36
srh-105 RNAi-treated nematodes
  chemotaxis index: −0.61
srh-109 RNAi-treated nematodes
  chemotaxis index: −0.91
srh-111 RNAi-treated nematodes
  chemotaxis index: −0.44
srh-113 RNAi-treated nematodes
  chemotaxis index: −0.43
srh-115 RNAi-treated nematodes
  chemotaxis index: −0.82
srh-116 RNAi-treated nematodes
  chemotaxis index: −0.82
srh-118 RNAi-treated nematodes
  chemotaxis index: −0.37
srh-119 RNAi-treated nematodes
  chemotaxis index: −0.35
srh-120 RNAi-treated nematodes
  chemotaxis index: −0.37
srh-122 RNAi-treated nematodes
  chemotaxis index: −0.61
srh-123 RNAi-treated nematodes
  chemotaxis index: −0.32
srh-125 RNAi-treated nematodes
  chemotaxis index: −0.56
srh-128 RNAi-treated nematodes
  chemotaxis index: −0.47
srh-129 RNAi-treated nematodes
  chemotaxis index: −0.56
srh-130 RNAi-treated nematodes
  chemotaxis index: −0.68
srh-131 RNAi-treated nematodes
  chemotaxis index: −0.49
srh-132 RNAi-treated nematodes
  chemotaxis index: −0.19
srh-139 RNAi-treated nematodes
  chemotaxis index: −0.73
srh-140 RNAi-treated nematodes
  chemotaxis index: −0.78
srh-141 RNAi-treated nematodes
  chemotaxis index: −0.49
srh-142 RNAi-treated nematodes
  chemotaxis index: −0.59
srh-145 RNAi-treated nematodes
  chemotaxis index: −0.64
srh-148 RNAi-treated nematodes
  chemotaxis index: −0.67
srh-154 RNAi-treated nematodes
  chemotaxis index: −0.65
srh-159 RNAi-treated nematodes
  chemotaxis index: −0.79
srh-165 RNAi-treated nematodes
  chemotaxis index: −0.49
srh-166 RNAi-treated nematodes
  chemotaxis index: −0.74
srh-167 RNAi-treated nematodes
  chemotaxis index: −0.28
srh-169 RNAi-treated nematodes
  chemotaxis index: −0.62
srh-174 RNAi-treated nematodes
  chemotaxis index: −0.45
srh-179 RNAi-treated nematodes
  chemotaxis index: −0.60
srh-182 RNAi-treated nematodes
  chemotaxis index: −0.86
srh-186 RNAi-treated nematodes
  chemotaxis index: −0.64
srh-190 RNAi-treated nematodes
  chemotaxis index: −0.64
srh-193 RNAi-treated nematodes
  chemotaxis index: −0.92
srh-195 RNAi-treated nematodes
  chemotaxis index: −0.47
srh-201 RNAi-treated nematodes
  chemotaxis index: −0.93
srh-203 RNAi-treated nematodes
  chemotaxis index: −0.95
srh-204 RNAi-treated nematodes
  chemotaxis index: −0.90
srh-206 RNAi-treated nematodes
  chemotaxis index: −0.94
srh-207 RNAi-treated nematodes
  chemotaxis index: −0.81
srh-208 RNAi-treated nematodes
  chemotaxis index: −0.60
srh-209 RNAi-treated nematodes
  chemotaxis index: −0.85
srh-210 RNAi-treated nematodes
  chemotaxis index: −0.77
srh-214 RNAi-treated nematodes
  chemotaxis index: −0.98
srh-216 RNAi-treated nematodes
  chemotaxis index: −0.68
srh-217 RNAi-treated nematodes
  chemotaxis index: −0.82
srh-220 RNAi-treated nematodes
  chemotaxis index: −0.47
srh-222 RNAi-treated nematodes
  chemotaxis index: −0.77
srh-223 RNAi-treated nematodes
  chemotaxis index: −0.75

Source: patent US12493040B2, “Cancer detection method using sense of smell of nematode” (HIROTSU BIO SCIENCE INC., priority 2013, dated 2025)
